The source made the active and inactive calls.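 Rule for the calls: active = compounds whose fitted half-maximal concentration in the cell-protection dose series is at or below a set limit; inactive = the rest.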

The text below walks through data of PubChem BioAssay AID588780 (Sanford-Burnham Center for Chemical Genomics, 2011).

The subject of the assay is H9c2 cardiomyocytes, 2-deoxyglucose stress, ATP luminescence, 2 h. Description: protection of cardiomyocytes from 2-deoxyglucose injury, dose response, cell-based, 2-deoxyglucose stress, uHTS hits (AID 588780).
Consider `COc1cc(OC)cc(-c2cc3nc(C)c(CCC(=O)Nc4nc(C)cs4)c(C)n3n2)c1`, for which the IC50 (usually the concentration needed to halve the response being measured) was > 79 µM (inactive).
`COc1ccc(Nc2nc(Nc3ccc(OC)cc3OC)nc(N3CCN(C)CC3)n2)c(OC)c1`: the IC50 is 43.4 µM (inactive).
As to `COc1ccccc1CN(C(=O)CNC(=O)c1ccco1)C(C(=O)NCC1CCCO1)c1ccccc1` (stereo not drawn), the IC50 is 11.6 µM.
For `O=C(COC(=O)CCc1nc2ccccc2c(=O)[nH]1)Nc1ccc2c(c1)OCO2`, the IC50 was > 79 µM (inactive).
Then `N#Cc1ccccc1S(=O)(=O)N1CCN(c2nc(-c3cccnc3)nc3ccccc23)CC1`, with > 79 µM (inactive); and `COc1ccc(C(=O)Nc2cc(C)nn2-c2nc3ccccc3[nH]2)c(OC)c1`, with 12.3 µM.
In the case of `O=C(OCC(=O)N1CCc2ccccc21)c1n[nH]c(=O)c2ccccc12` it was > 79 µM (inactive).
For the compound `O=CNc1cc(-c2ccc(C(=O)NC3CC3)cc2)cn2c(-c3ccccc3)cnc12`, the IC50 is 12.1 µM.
With `COc1cc(/C=N/NC(=O)c2ccccc2)ccc1OS(=O)(=O)c1ccccc1`, the IC50 was 9.14 µM.
On to `O=C1COc2ccc(-c3n[nH]c(=O)c4ccccc34)cc2N1`, for which the IC50 was > 79 µM (inactive).
In the case of `CN(C(=O)c1sc2nc(N3CCOCC3)c3c(c2c1N)CCCC3)c1ccccc1`, the IC50 is 5.73 µM.
In the case of `COc1cc(C(=O)N/N=C/c2ccc(OC(=O)c3ccccc3)c(OC)c2)ccc1O` it was > 79 µM (inactive); in that of `CCOC(=O)c1ccc(NC(=O)c2nc[nH]c2C(=O)NCCCCCNC(=O)OC(C)(C)C)cc1`, 5.78 µM; in that of `O=c1c2ccccc2oc2nc(-c3ccco3)n(Cc3ccccc3)c(=O)c12`, > 79 µM (inactive).
Then `O=C(CCc1nc2ccccc2c(=O)[nH]1)N1CCN(S(=O)(=O)c2ccc(F)cc2)CC1`, with > 79 µM (inactive).
`C[C@H](NC(=O)c1nc[nH]c1C(=O)NCC(=O)OCc1ccccc1)C(=O)OCc1ccccc1`: the IC50 was > 79 µM (inactive).
With `O=C1c2ccccc2C(=O)N1CCCCSc1nc2ccccc2c(=O)n1CCCN1CCOCC1`, the IC50 is 58.6 µM (inactive).
In the case of `Oc1c(Br)cc(Cl)cc1C=Nc1ccccc1Br` it was 31.6 µM (inactive); in that of `C/C(=N\Nc1nnc2c3ccccc3n(C)c2n1)c1ccc(C)o1`, > 79 µM (inactive); in that of `COc1ccc(-c2cc(C(=O)Nc3ccccc3N3CCOCC3)c3ccccc3n2)cc1OC`, > 79 µM (inactive).
For the compound `CCOC(=O)C1CCN(c2cc3c(cc2NC(=O)c2ccccc2Br)n(C)c(=O)n3C)CC1`, the IC50 is 45.5 µM (inactive).
On to `N#C/C(=C\c1cn(-c2ccccc2)nc1-c1cccnc1)c1nnc2n1CCCCC2`, for which the IC50 is 21.7 µM.
As for `c1ccc(-c2nc(-n3ccnc3)nc(-n3ccnc3)n2)cc1`, the IC50 was > 79 µM (inactive).
`CCCc1nc2ccccc2c(C(=O)OCc2nnc(-c3cc(OC)c(OC)c(OC)c3)o2)c1CC`: the IC50 is 11 µM.
As to `COc1cccc(-c2nnc3sc(-c4ccccn4)nn23)c1`, the IC50 is > 79 µM (inactive).
For `O=C(CN1CCN(S(=O)(=O)c2ccc(Br)cc2)CC1)c1ccc(O)c(O)c1`, the IC50 was 19.8 µM.
In the case of `Cc1nn2c(-c3cccc(NC(=O)c4ccco4)c3)nnc2c2ccccc12`, the IC50 is > 79 µM (inactive).
`CC(=O)Nc1cccc(-c2cc(NC(C)=O)c3ncc(-c4ccccc4)n3c2)c1`: the IC50 is 12.8 µM.
In the case of `Nc1c(C(=O)N/N=C/c2cccnc2)oc2nc(-c3ccco3)cc(-c3ccco3)c12` it was > 79 µM (inactive); in that of `COc1ccc(/C=N/NC(=O)c2sccc2OCc2ccc(F)cc2)cc1OC`, 15.4 µM; in that of `Cc1noc(C)c1Cn1nc(C(=O)O)c2ccccc2c1=O`, > 79 µM (inactive).
For the compound `COc1cc(-c2cc(NC(C)=O)c3ncc(-c4ccc(C(C)=O)cc4)n3c2)cc(OC)c1OC`, the IC50 was > 79 µM (inactive).
Then `CN(C)Cc1ccc(-c2nc3cccc4c3n2CCNC4=O)cc1`, with 49.2 µM (inactive).
Regarding `O=C(Nc1ccc(CN2CCOCC2)cc1)c1ccc(-c2cccc([N+](=O)[O-])c2)o1`, the IC50 was > 79 µM (inactive).
On to `COc1ccc(OCC(=O)NCc2n[nH]c(=O)c3ccccc23)cc1`, for which the IC50 is > 79 µM (inactive).
As to `CNC(=O)c1ccc(-c2sc3nc(N4CCOCC4)c4c(c3c2N)CCCC4)o1`, the IC50 was > 79 µM (inactive).
Turning to `O=C(NCCc1ccccc1Cl)c1ccc2nc3ccccc3c(=O)n2c1`, the IC50 was 16.8 µM.
In the case of `O=C(COc1ccccc1Cl)NNC(=O)Cn1[nH]c(=O)c2ccccc2c1=O`, the IC50 was > 79 µM (inactive).
With `C/C(=N\NC(=O)c1cccnc1)c1ccc(OC2OCCOC2Oc2ccc(/C(C)=N/NC(=O)c3cccnc3)cc2)cc1` (stereo not drawn), the IC50 was 13.1 µM.
Consider `Nc1c(C(=O)NC2CCCC2)c2nc3ccccc3nc2n1N`, for which the IC50 was > 79 µM (inactive).
Turning to `COC(=O)c1c(C)[nH]c(O)c1C=Nc1ccc(Oc2ccccc2)cc1`, the IC50 was > 79 µM (inactive).
Regarding `COC(=O)c1cc(NC(=O)Nc2cc(OC)ccc2OC)cc(C(=O)OC)c1`, the IC50 is 38.4 µM (inactive).
For `Cc1c(-c2ccccc2)oc2c(C(=O)OCC(=O)Nc3ccc(C(N)=O)cc3)cccc2c1=O`, the IC50 is 9.94 µM.
In the case of `CCc1ccc(C(C)NC(=O)c2cc(C)oc2C)cc1` (stereo not drawn), the IC50 was > 79 µM (inactive).
Then `COc1ccc(-c2cc(C(=O)N(C)Cc3ccccc3F)c3ccccc3n2)cc1OC`, with > 79 µM (inactive).
As to `O=C(/C=C/c1ccc(Cl)c([N+](=O)[O-])c1)Nc1cccnc1`, the IC50 was > 79 µM (inactive).
`COc1cc(-c2cc(NC(C)=O)c3ncc(-c4cc(OC)c(OC)c(OC)c4)n3c2)cc(OC)c1OC`: the IC50 is 5.28 µM.
Turning to `CN1C(=O)CSc2ccc(NC(=O)Nc3ccccn3)cc21`, the IC50 was > 79 µM (inactive).
As for `CCOC(=O)c1cc(-c2ccc(/C=N\n3cnnc3)o2)ccc1Cl`, the IC50 is > 79 µM (inactive).
Regarding `Cc1cc(C)c(C(=O)CC(=O)c2ccccc2Cl)c(O)c1`, the IC50 was > 79 µM (inactive).
Regarding `CNS(=O)(=O)c1ccc2nc(NC(=O)/C=C/c3ccco3)sc2c1`, the IC50 is > 79 µM (inactive).
Then `CC(=NO)C1CCC2C3CCC4CC(=NO)CCC4(C)C3C(C)(O)CC12C` (stereo not drawn), with 14.9 µM; and `O=C(N/N=C/c1cn(-c2ccccc2)nc1-c1cccnc1)c1cccnc1`, with > 79 µM (inactive).
Consider `COc1ccc(/C=C(\C#N)C(=O)c2c(C)[nH]c3ccccc23)cc1OC`, for which the IC50 was > 79 µM (inactive).
For `CC(=O)Nc1cccc(/C(C)=N/NC(=O)c2cccs2)c1`, the IC50 is > 79 µM (inactive).
Turning to `O=C(O)c1nn(CC(=O)N2CCN(c3ccccc3)CC2)c(=O)c2ccccc12`, the IC50 is > 79 µM (inactive).
In the case of `COc1cc(NC(=O)c2ccco2)c(C(=O)OCC(=O)c2c[nH]c3ccccc23)cc1OC` it was 7.59 µM.
Then `COC(=O)c1ccc(C(=O)OC)c(NC(=O)COC(=O)C23CC4CC(CC(O)(C4)C2)C3)c1`, with 9.67 µM; and `CC(=O)c1ccccc1OCCCN1CCCCC1`, with > 79 µM (inactive); and `O=C(Cn1[nH]c(=O)c2ccccc2c1=O)OCC(=O)N(Cc1ccccc1)Cc1ccccc1`, with > 79 µM (inactive).
Consider `O=C(C[C@H]1C/C=C\CC[C@H](Cc2ccc(F)cc2)C(=O)O[C@H](c2ccccc2)CNC1=O)N[C@H](CO)Cc1ccccc1`, for which the IC50 is > 79 µM (inactive).
Then `CCOC(=O)CSc1nnc(CSc2nc3ccccc3c(=O)[nH]2)n1-c1ccccc1`, with > 79 µM (inactive); and `Cc1onc(-c2ccccc2)c1C(=O)NC(=S)NNC(=O)c1ccccc1O`, with 37.2 µM (inactive).
As to `CCOC(=O)CNS(=O)(=O)c1cc(-c2n[nH]c(=O)c3ccccc23)ccc1C`, the IC50 is > 79 µM (inactive).
Take `COc1cc(-n2c(=O)c3ccccc3n(Cc3cc(=O)n4ccccc4n3)c2=O)cc(OC)c1OC`: the IC50 was > 79 µM (inactive).
Regarding `Cc1nn(-c2ccccc2)nc1C(=O)Nc1cccc(C(=O)NC2CC2)c1`, the IC50 was > 79 µM (inactive).
Regarding `CS(=O)(=O)c1ccc(-c2cnc3c(NC=O)cc(-c4ccsc4)cn23)cc1`, the IC50 was > 79 µM (inactive).
As to `O=C1C=C(N2CCOCC2)c2cccc3cccc1c23`, the IC50 was > 79 µM (inactive).
For `COCCn1c(=NC(=O)c2nc3ccccc3s2)sc2cc(S(C)(=O)=O)ccc21`, the concentration for half-maximal inhibition (IC50) was 28.3 µM.
For the compound `Cc1ccccc1NC(=O)COC(=O)CCc1nc2ccccc2c(=O)[nH]1`, the IC50 is > 79 µM (inactive).
As for `C#Cc1cc(N2CCN(C(=O)c3ccoc3)CC2)n2nc(-c3cccc(Cl)c3)cc2n1`, the IC50 is > 79 µM (inactive).
As to `Cc1cccc(NC(=O)c2nc[nH]c2C(=O)NCCCCNC(=O)c2[nH]cnc2C(=O)Nc2cccc(C)c2)c1`, the IC50 was > 79 µM (inactive).
As to `COc1cccc(NC(=O)NC2(C(F)(F)F)Oc3ccccc3O2)c1`, the IC50 is 16.9 µM.
Take `COc1ccc(CCn2c(=N)c(C(=O)NCC3CCCO3)cc3c(=O)n4cccc(C)c4nc32)cc1OC` (stereo not drawn): the IC50 was 58 µM (inactive).
On to `CCOC(=O)Cc1csc(SCc2cc(=O)oc3cc(O)ccc23)n1`, for which the IC50 is 51.9 µM (inactive).
With `O=C(NC(O)C(=O)c1cccs1)c1cccnc1` (stereo not drawn), the IC50 was > 79 µM (inactive).
Regarding `CC1CCN(CCCNC(=O)c2n[nH]c(=O)c3ccccc23)CC1`, the IC50 was > 79 µM (inactive).
Then `COC(=O)[C@@]12CCCCN1[C@H](c1ccc(-c3cc(C(C)=O)cs3)cc1)[C@H]1C(=O)N(C)C(=O)[C@H]12`, with > 79 µM (inactive); and `CCC(=O)N1CCN(c2ccccc2NC(=O)c2ccc(-c3cccc([N+](=O)[O-])c3)o2)CC1`, with > 79 µM (inactive); and `CC1Cc2ccccc2N1C(=O)COC(=O)c1n[nH]c(=O)c2ccccc12` (stereo not drawn), with > 79 µM (inactive).
Then `Cc1ccccc1N=Cc1cc2c(cc1[N+](=O)[O-])OCO2`, with > 79 µM (inactive).
With `CC(=O)Nc1cccc(-c2cc(NC(C)=O)c3ncc(-c4cccc(C(C)=O)c4)n3c2)c1`, the IC50 was > 79 µM (inactive).
With `COc1ccc(-c2ccc3c(c2)S(=O)(=O)c2cccc(C(=O)NC[C@@H]4CCCO4)c2C3=O)cc1OC`, the 50% inhibitory concentration (IC50) is 12.8 µM.
